Measurements taken from ChEMBL document CHEMBL4038286, “Synthesis of camphecene derivatives using click chemistry methodology and study of their antiviral activity” (Bioorg Med Chem Lett, 2017).

test system: Influenza A virus; test: Antiviral activity against rimantadine-resistant Influenza A virus (A/Puerto Rico/8/34(H1N1)) infected in MDCK cells; assay type: functional, A/Puerto Rico/8/1934(H1N1); settings: read-out: ED50 (the source's name)

`CC(N)C12CC3CC(CC(C3)C1)C2` (stereo not given) [RIMANTADINE] and `NC12CC3CC(CC(C3)C1)C2` [AMANTADINE] are within 1.5-fold of each other in EC50: 72 µM for the first, 60 µM for the second.

Going from `CC(N)[C@@H]1C[C@H]2CC[C@]1(C)C2` (stereo not given in full) to `CC1(C)[C@@H]2CC[C@@]1(C)/C(=N/CCN=[N+]=[N-])C2`, the EC50 rises from 181 µM to 455 µM (2.5-fold).

Compared with `CCOP(=O)(CCCCn1cc(COCC/N=C2\C[C@H]3CC[C@]2(C)C3(C)C)nn1)OCC`, `CC1(C)[C@@H]2CC[C@@]1(C)/C(=N/CCOCc1cn(CCO)nn1)C2` is 6-fold lower in EC50: 299 µM for the first, 50 µM for the second. The second is the more potent here.

`CC1(C)[C@@H]2CC[C@@]1(C)/C(=N/CCn1cc(CCN3CCOCC3)nn1)C2` and `CC1(C)[C@@H]2CC[C@@]1(C)/C(=N/CCn1cc(CCO)nn1)C2` are within 1.5-fold of each other in EC50: 45 µM for the first, 55 µM for the second.

First: CCCCc1cn(CC/N=C2\C[C@H]3CC[C@]2(C)C3(C)C)nn1
Second: CC1(C)[C@@H]2CC[C@@]1(C)/C(=N/CCn1cc(CO)nn1)C2
The EC50 of the first is 11-fold lower: 56 µM for the first, 616 µM for the second. The first is the more potent here.

First: CC1(C)[C@@H]2CC[C@@]1(C)/C(=N\CCOCc1cn(CC/N=C3\C[C@H]4CC[C@]3(C)C4(C)C)nn1)C2
Second: CC(C)(C)OC(=O)Cn1cc(COCC/N=C2\C[C@H]3CC[C@]2(C)C3(C)C)nn1
The EC50 of the first is 4.1-fold higher: 98 µM for the first, 24 µM for the second.

First: CC(C)(O)Cc1cn(CC/N=C2\C[C@H]3CC[C@]2(C)C3(C)C)nn1
Second: CNCc1cn(CC/N=C2\C[C@H]3CC[C@]2(C)C3(C)C)nn1
The EC50 of the first is lower: 32 µM for the first, over 100 µM for the second.

Going from `CC1(C)[C@@H]2CC[C@@]1(C)/C(=N/CCOCc1cn(-c3ccccc3)nn1)C2` to `C#CCOCC/N=C1\C[C@H]2CC[C@]1(C)C2(C)C`, the EC50 rises from 63 µM to over 429 µM.

First: COCCNCCc1cn(CC/N=C2\C[C@H]3CC[C@]2(C)C3(C)C)nn1
Second: CC1(C)[C@@H]2CC[C@@]1(C)/C(=N/CCn1cc([Si](C)(C)C)nn1)C2
The EC50 of the first is lower: 25 µM for the first, over 31 µM for the second.

`CCOP(=O)(OCC)C(Cc1cn(CC/N=C2\C[C@H]3CC[C@]2(C)C3(C)C)nn1)P(=O)(OCC)OCC` and `CCOC(=O)C(C)(Cc1cn(CC/N=C2\C[C@H]3CC[C@]2(C)C3(C)C)nn1)P(=O)(OCC)OCC` (stereo not given in full) cannot be ordered by EC50: over 58.4 µM for the first, 314 µM for the second.
